# From ChEMBL document CHEMBL5042543, “Bridged Piperidine Analogues of a High Affinity Naphthalene-Based P2Y14R Antagonist” (J Med Chem, 2022)
# Columns and labels:
# P2Y purinoceptor 14 [1] = target: T1, P2Y purinoceptor 14 (Homo sapiens, UniProt Q15391); assay: cell-based
# T1 sequence (Q15391 whole entry): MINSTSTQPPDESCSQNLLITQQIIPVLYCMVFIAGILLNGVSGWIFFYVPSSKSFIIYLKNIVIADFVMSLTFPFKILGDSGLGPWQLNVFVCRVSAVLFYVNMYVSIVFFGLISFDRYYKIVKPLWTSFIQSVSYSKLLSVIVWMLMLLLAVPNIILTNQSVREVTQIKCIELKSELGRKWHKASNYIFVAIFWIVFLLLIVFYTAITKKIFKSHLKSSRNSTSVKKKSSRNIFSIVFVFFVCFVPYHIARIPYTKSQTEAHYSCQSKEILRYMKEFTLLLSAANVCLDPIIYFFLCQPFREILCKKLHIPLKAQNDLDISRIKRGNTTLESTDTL
# Description: Inhibition of fluorescent antagonist binding to human P2Y14R expressed in CHO cells preincubated for 30 mins followed by 6-amino-9-(2-carboxy-4-((6-(4-(4-(4-(4-(3-carboxy 6-(4-(trifluoromethyl)phenyl)naphthalen-1-yl)phenyl)piperidin-1-yl)butyl)-1H-1,2,3-triazol-1-yl)hexyl)carbamoyl)phenyl)-3-iminio-5-sulfo-3H-xanthene-4-sulfonate addition and measured after 30 mins by BD FACSCalibur flow cytometry analysis
# [2] = Distribution coefficient, logD of compound at pH 7.4 by HPLC analysis; type: physicochemical; conditions: octanol/water
# [3] = target: Sigma intracellular receptor 2 (Homo sapiens, UniProt Q5BJF2); assay: Inhibition of sigma 2 receptor (unknown origin) assessed as binding constant
# Chain of Sigma intracellular receptor 2 (Q5BJF2 whole entry): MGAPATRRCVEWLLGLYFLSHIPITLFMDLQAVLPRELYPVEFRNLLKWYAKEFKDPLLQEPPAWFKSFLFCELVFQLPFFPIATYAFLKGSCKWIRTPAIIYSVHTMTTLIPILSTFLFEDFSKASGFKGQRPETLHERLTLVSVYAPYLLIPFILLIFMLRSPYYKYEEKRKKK
# D(1B) dopamine receptor = D(1B) dopamine receptor (Homo sapiens, UniProt P21918); assay: Inhibition of dopamine D5 receptor (unknown origin) assessed as binding constant
# Chain of D(1B) dopamine receptor (P21918 whole entry): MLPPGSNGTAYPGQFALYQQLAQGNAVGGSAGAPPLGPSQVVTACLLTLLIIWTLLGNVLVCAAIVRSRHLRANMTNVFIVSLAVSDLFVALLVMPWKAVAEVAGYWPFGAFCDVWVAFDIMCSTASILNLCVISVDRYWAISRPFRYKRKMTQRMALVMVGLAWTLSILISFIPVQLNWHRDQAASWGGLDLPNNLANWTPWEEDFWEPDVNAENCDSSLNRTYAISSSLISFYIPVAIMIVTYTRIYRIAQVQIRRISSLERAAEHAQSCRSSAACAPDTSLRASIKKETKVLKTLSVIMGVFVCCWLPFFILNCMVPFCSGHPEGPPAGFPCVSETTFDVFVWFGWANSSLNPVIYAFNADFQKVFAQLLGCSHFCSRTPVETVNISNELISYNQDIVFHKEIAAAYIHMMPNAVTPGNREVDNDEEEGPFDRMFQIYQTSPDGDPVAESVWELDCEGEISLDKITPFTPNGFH
# [4] = target: Sigma non-opioid intracellular receptor 1 (Homo sapiens, UniProt Q99720); assay: Inhibition of sigma 1 receptor (unknown origin) assessed as binding constant
# Chain of Sigma non-opioid intracellular receptor 1 (Q99720 whole entry): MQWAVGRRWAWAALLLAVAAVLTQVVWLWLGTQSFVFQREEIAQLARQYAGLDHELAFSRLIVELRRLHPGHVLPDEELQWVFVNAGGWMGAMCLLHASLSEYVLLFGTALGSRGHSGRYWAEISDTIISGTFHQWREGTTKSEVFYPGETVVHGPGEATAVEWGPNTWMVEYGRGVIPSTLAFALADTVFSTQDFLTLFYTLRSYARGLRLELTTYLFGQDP
# [5] = Aqueous solubility of the compound at pH 4
# [6] = Aqueous solubility of the compound at pH 7.4
# P2Y purinoceptor 14 [7] = target: T2, P2Y purinoceptor 14 (Mus musculus, UniProt Q9ESG6); assay: Inhibition of fluorescent antagonist binding to mouse P2Y14R expressed in HEK293 cells preincubated for 30 mins followed by addition of 6-amino-9-(2-carboxy-4-((6-(4-(4-(4-(4-(3-carboxy-6-(4-(trifluoromethyl)phenyl)naphthalen-1-yl)phenyl)piperidin-1-yl)butyl)-1H-1,2,3-triazol-1-yl)hexyl)carbamoyl)phenyl)-3-iminio-5-sulfo-3H-xanthene-4-sulfonate incubated for 30 mins by BD FACSCalibur flow …; type: cell-based
# T2 sequence (Q9ESG6 whole entry): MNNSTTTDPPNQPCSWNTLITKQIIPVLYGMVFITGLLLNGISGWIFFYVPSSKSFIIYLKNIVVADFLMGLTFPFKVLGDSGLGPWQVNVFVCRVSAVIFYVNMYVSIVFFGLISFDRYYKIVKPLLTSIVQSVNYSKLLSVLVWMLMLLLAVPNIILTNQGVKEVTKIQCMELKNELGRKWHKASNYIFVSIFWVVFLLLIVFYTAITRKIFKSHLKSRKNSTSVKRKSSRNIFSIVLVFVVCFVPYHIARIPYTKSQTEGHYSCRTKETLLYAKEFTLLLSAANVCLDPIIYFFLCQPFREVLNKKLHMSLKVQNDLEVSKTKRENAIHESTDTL
# liver carboxylesterase = target: T3, liver carboxylesterase (Sus scrofa, UniProt Q29550); assay: Stability of the compound in aqueous medium at pH 7.4 assessed as half life in presence of porcine liver esterase; type: physicochemical; conditions: pig
# T3 sequence (Q29550 whole entry): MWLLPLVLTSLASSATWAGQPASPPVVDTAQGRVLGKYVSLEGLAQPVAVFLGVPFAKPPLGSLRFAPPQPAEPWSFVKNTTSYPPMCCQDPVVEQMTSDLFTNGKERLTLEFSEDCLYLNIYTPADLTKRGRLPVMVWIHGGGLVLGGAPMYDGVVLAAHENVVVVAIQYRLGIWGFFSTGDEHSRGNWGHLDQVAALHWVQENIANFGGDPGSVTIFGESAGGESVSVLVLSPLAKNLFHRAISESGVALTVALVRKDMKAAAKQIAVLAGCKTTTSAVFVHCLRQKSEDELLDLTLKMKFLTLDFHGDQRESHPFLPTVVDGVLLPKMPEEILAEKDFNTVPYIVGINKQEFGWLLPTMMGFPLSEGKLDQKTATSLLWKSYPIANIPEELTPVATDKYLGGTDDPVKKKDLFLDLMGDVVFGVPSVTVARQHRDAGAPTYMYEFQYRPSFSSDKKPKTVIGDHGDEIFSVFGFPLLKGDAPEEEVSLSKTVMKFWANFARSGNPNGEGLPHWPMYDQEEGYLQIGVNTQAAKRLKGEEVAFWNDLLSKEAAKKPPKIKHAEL
# [8] = Plasma protein binding in mouse assessed as compound remaining at 5 hrs; type: ADME, cell-free
# [9] = Plasma protein binding in human assessed as bound fraction; type: ADME, cell-free
# [10] = Plasma protein binding in rat assessed as compound remaining at 5 hrs; type: ADME, cell-free
smiles,measurement,setting,value
CCOC(=O)N1C[C@H]2C[C@@H]1C[C@@H]2c1ccc(-c2cc(C(=O)O)cc3cc(-c4ccc(C(F)(F)F)cc4)ccc23)cc1,IC50,P2Y purinoceptor 14 [1],442 nM
N[C@H]1C[C@@H](C(=O)O)C[C@@H]1c1ccc(-c2cc(C(=O)O)cc3cc(-c4ccc(C(F)(F)F)cc4)ccc23)cc1,IC50,P2Y purinoceptor 14 [1],269 nM
CC(=O)N1C[C@@H]2C[C@H]1C[C@H]2c1ccc(-c2cc(C(=O)O)cc3cc(-c4ccc(C(F)(F)F)cc4)ccc23)cc1,logD,[2],0.55
same,Ki,[3],1700 nM
same,Ki,D(1B) dopamine receptor,> 1000 nM
same,Ki,[4],4200 nM
same,IC50,P2Y purinoceptor 14 [1],64.1 nM
COC1(c2ccc(-c3cc(C(=O)O)cc4cc(-c5ccc(C(F)(F)F)cc5)ccc34)cc2)[C@H]2CC[C@H]1CNC2 (stereo partly drawn),logD,[2]; read-out: logD,1.4
same,IC50,P2Y purinoceptor 14 [1],44.6 nM
same,solubility,[5]; buffer,1.81 µg/mL
same,solubility,[6]; aqueous medium,0.88 µg/mL
O=C(O)c1cc(-c2ccc([C@H]3CCN[C@@H]4C[C@H]34)cc2)c2ccc(-c3ccc(C(F)(F)F)cc3)cc2c1 (relative stereo),logD,[2]; read-out: logD,2.6
same,solubility,[5]; aqueous medium,0.1 µg/mL
same,solubility,[6]; buffer,0.51 µg/mL
O=C(O)c1cc(-c2ccc(C3CC4CCC3CN4)cc2)c2ccc(-c3ccc(C(F)(F)F)cc3)cc2c1 (stereo not drawn),logD,[2]; read-out: logD,1.7
same,IC50,P2Y purinoceptor 14 [1],25.1 nM
O=C(O)c1cc(-c2ccc(C34CCNCC3C4(F)F)cc2)c2ccc(-c3ccc(C(F)(F)F)cc3)cc2c1 (racemic),logD,[2]; read-out: logD,2.7
CC1CC(c2ccc(-c3cc(C(=O)O)cc4cc(-c5ccc(C(F)(F)F)cc5)ccc34)cc2)CCN1 (stereo not drawn),logD,[2]; read-out: logD,2.1
O=C(O)c1cc(-c2ccc(C3CC4CCC(C3)N4)cc2)c2ccc(-c3ccc(C(F)(F)F)cc3)cc2c1 (stereo not drawn),logD,[2]; read-out: logD,2.3
same,IC50,P2Y purinoceptor 14 [1],38.3 nM
same,solubility,[5]; buffer,0.38 µg/mL
same,solubility,[6]; buffer,0.13 µg/mL
CC(=O)N1C[C@H]2C[C@@H]1C[C@@H]2c1ccc(-c2cc(C(=O)O)cc3cc(-c4ccc(C(F)(F)F)cc4)ccc23)cc1,logD,[2]; read-out: logD,0.92
same,IC50,P2Y purinoceptor 14 [1],99.3 nM
CC1CNCCC1c1ccc(-c2cc(C(=O)O)cc3cc(-c4ccc(C(F)(F)F)cc4)ccc23)cc1 (stereo not drawn),logD,[2]; read-out: logD,2.8
O=C(O)c1cc(-c2ccc(C3(O)[C@H]4CC[C@H]3CNC4)cc2)c2ccc(-c3ccc(C(F)(F)F)cc3)cc2c1 (stereo partly drawn),logD,[2]; read-out: logD,1.2
same,Ki,[3],1700 nM
same,Ki,[4],1700 nM
same,IC50,P2Y purinoceptor 14 [1],21.3 nM
same,solubility,[5]; buffer,2.32 µg/mL
same,solubility,[6]; buffer,0.54 µg/mL
same,IC50,P2Y purinoceptor 14 [7],15.5 nM
O=C(O)c1cc(-c2ccc(C34CCNCC3C4)cc2)c2ccc(-c3ccc(C(F)(F)F)cc3)cc2c1 (racemic),logD,[2]; read-out: logD,2.4
same,IC50,P2Y purinoceptor 14 [1],45.5 nM
same,solubility,[5]; aqueous medium,1.32 µg/mL
same,solubility,[6]; buffer,0.17 µg/mL
O=C(O)c1cc(-c2ccc([C@]3(O)C[C@H]4CC[C@@H]3CN4)cc2)c2ccc(-c3ccc(C(F)(F)F)cc3)cc2c1 (racemic),logD,[2]; read-out: logD,0.74
same,IC50,P2Y purinoceptor 14 [1],114 nM
N[C@@H]1C[C@H](CO)C[C@H]1c1ccc(-c2cc(C(=O)O)cc3cc(-c4ccc(C(F)(F)F)cc4)ccc23)cc1,logD,[2]; read-out: logD,1.1
O=C(O)c1cc(-c2ccc(C3(O)[C@H]4CC[C@H]3CN(Cc3ccccc3)C4)cc2)c2ccc(-c3ccc(C(F)(F)F)cc3)cc2c1 (stereo partly drawn),logD,[2]; read-out: logD,3.3
same,solubility,[5]; buffer,0.48 µg/mL
same,solubility,[6]; buffer,0.14 µg/mL
CN(C)C(=O)COC(=O)c1cc(-c2ccc([C@@H]3C[C@@H]4C[C@H]3C(=O)N4)cc2)c2ccc(-c3ccc(C(F)(F)F)cc3)cc2c1,half-life,liver carboxylesterase,> 72 h
CN(C)C(=O)COC(=O)c1cc(-c2ccc([C@@H]3C[C@@H]4C[C@H]3NC4=O)cc2)c2ccc(-c3ccc(C(F)(F)F)cc3)cc2c1,Ki,[4],6900 nM
same,Fu,[8],0%
same,PPB,[9],99.79%
same,Fu,[10],0%
same,half-life,liver carboxylesterase,> 72 h
